Key:
[1] = tested on: ELIC L295A; design: method as in Henault et al.[9], [18], [29]; conditions: Xenopus laevis oocytes; ±SD; n=8; ref Henault et al.[9], [18], [29]; cited from earlier work
[2] = tested on: ELIC I310A; design: method as in Henault et al.[9], [18], [29]; conditions: Xenopus laevis oocytes; ±SD; n=10; ref Henault et al.[9], [18], [29]; cited from earlier work
[3] = tested on: ELIC V315A; design: method as in Henault et al.[9], [18], [29]; conditions: Xenopus laevis oocytes; ±SD; n=9; ref Henault et al.[9], [18], [29]; cited from earlier work
[4] = tested on: ELIC F303A; design: method as in Henault et al.[9], [18], [29]; conditions: Xenopus laevis oocytes; ±SD; n=10; ref Henault et al.[9], [18], [29]; cited from earlier work
[5] = molecular target: T1, ELIC W219A + F303A (Dickeya chrysanthemi, UniProt P0C7B7, F303A/W219A); assay: TEVC cysteamine-induced current, ELIC W219A + F303A; assay type: cell-based; conditions: Xenopus laevis oocytes; ±SD; n=8
T1 construct: expressed in transfected cells; host or cells: Xenopus laevis oocytes injected with cRNA (pTLN plasmid)
T1 sequence (P0C7B7 whole entry W219A/F303A): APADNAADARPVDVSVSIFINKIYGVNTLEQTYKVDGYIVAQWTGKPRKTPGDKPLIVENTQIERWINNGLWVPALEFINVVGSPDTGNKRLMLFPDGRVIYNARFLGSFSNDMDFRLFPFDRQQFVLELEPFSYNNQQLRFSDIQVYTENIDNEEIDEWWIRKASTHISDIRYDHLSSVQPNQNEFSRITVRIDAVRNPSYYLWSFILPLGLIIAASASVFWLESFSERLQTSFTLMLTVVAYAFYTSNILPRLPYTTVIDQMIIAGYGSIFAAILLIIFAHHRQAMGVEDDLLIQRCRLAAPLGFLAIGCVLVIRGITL
Text: (§1) To examine how different physical interactions at the M4-M1/M3 interface in both GLIC and ELIC (Fig. 1) influence function, we mutated each residue to Ala, and characterized how each mutation influenced agonist-induced channel gating using two-electrode voltage clamp electrophysiology. Both GLIC and ELIC are cation-selective ion channels that transiently gate open in response to agonist binding, although GLIC responds to protons while ELIC responds to primary amines, such as cysteamine, [34].
(§2) Stage V–VI oocytes were collected as previously described, injected with cRNA, and allowed to incubate one to four days at 16 °C in ND96 + buffer (5 mM HEPES, 96 mM NaCl, 2 mM KCl, 1 mM MgCl2, 1 mM CaCl2, and 2 mM Pyruvate). Whole cell currents were recorded using a two-electrode voltage clamp apparatus (OC-725C oocyte clamp; Holliston, MA). For GLIC, whole cell currents were recorded from injected oocytes (3–20 ng cRNA) immersed in MES buffer (140 mM NaCl, 2.8 mM KCl, 2 mM MgCl2, and 10 mM MES). Currents through the plasma membrane in response to pH jumps (pH 7.3 down to the indicated pH values) were measured with the transmembrane voltage clamped at voltages between −20 mV and −40 mV depending on the level of expression, typically −20 mV. […]

[6] = molecular target: T2, ELIC S271A + F307A (Dickeya chrysanthemi, UniProt P0C7B7, F307A/S271A); assay: TEVC cysteamine-induced current, ELIC S271A + F307A; assay type: cell-based; conditions: Xenopus laevis oocytes; ±SD; n=8
T2 construct: expressed in transfected cells; host or cells: Xenopus laevis oocytes injected with cRNA (pTLN plasmid)
T2 sequence (P0C7B7 whole entry S271A/F307A): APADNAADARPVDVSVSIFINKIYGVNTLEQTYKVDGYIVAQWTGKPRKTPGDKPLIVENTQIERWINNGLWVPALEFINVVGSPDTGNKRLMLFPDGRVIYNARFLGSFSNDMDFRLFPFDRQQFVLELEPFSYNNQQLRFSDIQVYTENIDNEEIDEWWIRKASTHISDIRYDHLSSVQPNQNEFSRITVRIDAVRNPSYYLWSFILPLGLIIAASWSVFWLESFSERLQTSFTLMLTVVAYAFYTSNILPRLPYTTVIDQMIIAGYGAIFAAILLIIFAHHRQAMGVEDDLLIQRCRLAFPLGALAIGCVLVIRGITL
Text: as §1, §2

[7] = molecular target: T3, ELIC F222A + C299A (Dickeya chrysanthemi, UniProt P0C7B7, C299A/F222A); assay: TEVC cysteamine-induced current, ELIC F222A + C299A; assay type: cell-based; conditions: Xenopus laevis oocytes; ±SD; n=8
T3 construct: expressed in transfected cells; host or cells: Xenopus laevis oocytes injected with cRNA (pTLN plasmid)
T3 sequence (P0C7B7 whole entry F222A/C299A): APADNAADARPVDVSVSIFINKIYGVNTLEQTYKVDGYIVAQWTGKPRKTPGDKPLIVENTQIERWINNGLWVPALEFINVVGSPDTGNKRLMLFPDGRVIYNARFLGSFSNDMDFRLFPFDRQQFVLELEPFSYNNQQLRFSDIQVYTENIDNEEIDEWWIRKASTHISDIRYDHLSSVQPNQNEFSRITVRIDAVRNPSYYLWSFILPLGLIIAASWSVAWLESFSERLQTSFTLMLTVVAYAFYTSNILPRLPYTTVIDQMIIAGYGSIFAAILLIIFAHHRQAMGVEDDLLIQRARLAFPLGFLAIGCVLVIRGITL
Text: as §1, §2

[8] = molecular target: T4, ELIC L278A (Dickeya chrysanthemi, UniProt P0C7B7, L278A); assay: TEVC cysteamine-induced current, ELIC L278A; assay type: cell-based; conditions: Xenopus laevis oocytes; ±SD; n=8
T4 construct: expressed in transfected cells; host or cells: Xenopus laevis oocytes injected with cRNA (pTLN plasmid)
T4 sequence (P0C7B7 whole entry L278A): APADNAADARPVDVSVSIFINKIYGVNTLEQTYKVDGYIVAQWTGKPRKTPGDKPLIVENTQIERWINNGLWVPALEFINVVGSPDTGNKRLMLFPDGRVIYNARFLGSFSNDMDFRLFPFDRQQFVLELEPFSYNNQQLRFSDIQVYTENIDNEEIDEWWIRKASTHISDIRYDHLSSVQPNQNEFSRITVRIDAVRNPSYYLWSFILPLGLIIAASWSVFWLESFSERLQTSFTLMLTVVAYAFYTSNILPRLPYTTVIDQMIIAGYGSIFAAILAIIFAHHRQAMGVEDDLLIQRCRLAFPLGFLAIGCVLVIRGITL
Text: as §1, §2

[9] = molecular target: T5, ELIC G270A (Dickeya chrysanthemi, UniProt P0C7B7, G270A); assay: TEVC cysteamine-induced current, ELIC G270A; assay type: cell-based; conditions: Xenopus laevis oocytes; ±SD; n=8
T5 construct: expressed in transfected cells; host or cells: Xenopus laevis oocytes injected with cRNA (pTLN plasmid)
T5 sequence (P0C7B7 whole entry G270A): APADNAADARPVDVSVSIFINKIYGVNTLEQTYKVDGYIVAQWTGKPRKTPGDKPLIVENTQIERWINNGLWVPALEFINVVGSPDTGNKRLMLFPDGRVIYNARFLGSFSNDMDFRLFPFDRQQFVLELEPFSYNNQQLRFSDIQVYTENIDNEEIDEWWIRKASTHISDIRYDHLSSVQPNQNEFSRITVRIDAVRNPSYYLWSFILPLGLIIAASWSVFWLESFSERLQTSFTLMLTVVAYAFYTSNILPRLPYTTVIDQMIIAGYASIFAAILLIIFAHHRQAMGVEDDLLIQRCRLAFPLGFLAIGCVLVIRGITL
Text: as §1, §2

[10] = molecular target: T6, ELIC W219A (Dickeya chrysanthemi, UniProt P0C7B7, W219A); assay: TEVC cysteamine-induced current, ELIC W219A; assay type: cell-based; conditions: Xenopus laevis oocytes; ±SD; n=8
T6 construct: expressed in transfected cells; host or cells: Xenopus laevis oocytes injected with cRNA
T6 sequence (P0C7B7 whole entry W219A): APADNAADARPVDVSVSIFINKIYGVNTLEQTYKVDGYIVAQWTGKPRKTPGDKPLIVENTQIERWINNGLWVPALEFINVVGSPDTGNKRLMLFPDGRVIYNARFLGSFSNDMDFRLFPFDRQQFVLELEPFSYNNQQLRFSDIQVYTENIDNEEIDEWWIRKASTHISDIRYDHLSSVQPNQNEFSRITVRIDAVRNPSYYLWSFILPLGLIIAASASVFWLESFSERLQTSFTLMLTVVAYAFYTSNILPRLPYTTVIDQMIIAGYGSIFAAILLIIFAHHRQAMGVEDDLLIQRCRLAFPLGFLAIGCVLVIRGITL
Text: as §1, §2

[11] = molecular target: T7, ELIC L213A (Dickeya chrysanthemi, UniProt P0C7B7, L213A); assay: TEVC cysteamine-induced current, ELIC L213A; assay type: cell-based; conditions: Xenopus laevis oocytes; ±SD; n=8
T7 construct: expressed in transfected cells; host or cells: Xenopus laevis oocytes injected with cRNA
T7 sequence (P0C7B7 whole entry L213A): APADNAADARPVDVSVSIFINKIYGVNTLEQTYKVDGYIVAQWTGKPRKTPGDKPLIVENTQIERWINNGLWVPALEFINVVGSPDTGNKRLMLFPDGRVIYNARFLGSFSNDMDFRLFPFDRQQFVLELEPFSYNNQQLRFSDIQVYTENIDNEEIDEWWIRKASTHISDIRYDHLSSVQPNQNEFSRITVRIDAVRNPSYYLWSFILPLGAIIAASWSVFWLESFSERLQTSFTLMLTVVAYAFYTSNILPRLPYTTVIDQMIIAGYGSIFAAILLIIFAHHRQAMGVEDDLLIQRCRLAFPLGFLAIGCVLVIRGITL
Text: as §1, §2

[12] = tested on: ELIC F307A; design: method as in Henault et al.[9], [18], [29]; conditions: Xenopus laevis oocytes; ±SD; n=8; ref Henault et al.[9], [18], [29]; cited from earlier work
[13] = tested on: ELIC G311A; design: method as in Henault et al.[9], [18], [29]; conditions: Xenopus laevis oocytes; ±SD; n=11; ref Henault et al.[9], [18], [29]; cited from earlier work
[14] = molecular target: T8, ELIC L209A (Dickeya chrysanthemi, UniProt P0C7B7, L209A); assay: TEVC cysteamine-induced current, ELIC L209A; assay type: cell-based; conditions: Xenopus laevis oocytes; ±SD; n=8
T8 construct: expressed in transfected cells; host or cells: Xenopus laevis oocytes injected with cRNA
T8 sequence (P0C7B7 whole entry L209A): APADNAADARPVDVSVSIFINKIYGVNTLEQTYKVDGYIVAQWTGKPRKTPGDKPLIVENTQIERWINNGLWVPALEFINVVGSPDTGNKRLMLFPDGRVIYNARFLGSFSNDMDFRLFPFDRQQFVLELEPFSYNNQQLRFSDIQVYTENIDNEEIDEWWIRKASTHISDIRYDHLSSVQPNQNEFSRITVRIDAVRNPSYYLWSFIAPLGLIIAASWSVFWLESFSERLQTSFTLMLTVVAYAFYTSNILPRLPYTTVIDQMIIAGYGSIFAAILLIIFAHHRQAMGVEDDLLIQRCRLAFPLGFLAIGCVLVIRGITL
Text: as §1, §2

[15] = tested on: ELIC I296A; design: method as in Henault et al.[9], [18], [29]; conditions: Xenopus laevis oocytes; ±SD; n=10; ref Henault et al.[9], [18], [29]; cited from earlier work
[16] = molecular target: T9, ELIC I215A (Dickeya chrysanthemi, UniProt P0C7B7, I215A); assay: TEVC cysteamine-induced current, ELIC I215A; assay type: cell-based; conditions: Xenopus laevis oocytes; ±SD; n=8
T9 construct: expressed in transfected cells; host or cells: Xenopus laevis oocytes injected with cRNA
T9 sequence (P0C7B7 whole entry I215A): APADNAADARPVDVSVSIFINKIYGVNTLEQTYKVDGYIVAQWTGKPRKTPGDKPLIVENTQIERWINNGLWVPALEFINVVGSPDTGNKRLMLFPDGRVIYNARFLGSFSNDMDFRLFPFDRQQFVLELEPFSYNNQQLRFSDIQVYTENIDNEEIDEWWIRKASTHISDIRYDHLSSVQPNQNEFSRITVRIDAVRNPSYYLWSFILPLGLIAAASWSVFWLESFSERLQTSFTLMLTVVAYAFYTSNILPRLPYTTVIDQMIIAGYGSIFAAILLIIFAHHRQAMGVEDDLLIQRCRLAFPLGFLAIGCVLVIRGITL
Text: as §1, §2

[17] = tested on: ELIC R300A; design: method as in Henault et al.[9], [18], [29]; conditions: Xenopus laevis oocytes; ±SD; n=11; ref Henault et al.[9], [18], [29]; cited from earlier work
[18] = tested on: ELIC G318A; design: method as in Henault et al.[9], [18], [29]; conditions: Xenopus laevis oocytes; ±SD; n=10; ref Henault et al.[9], [18], [29]; cited from earlier work

NCCS [cysteamine]
−logEC50 [1]: 3.30 ± 0.09 | EC50 [2]: 880 ± 90 µM | −logEC50 [2]: 3.05 ± 0.04 | EC50 [3]: 600 ± 80 µM | −logEC50 [3]: 3.22 ± 0.06 | EC50 [4]: 190 ± 70 µM | −logEC50 [4]: 3.73 ± 0.17 | EC50 [5]: 550 ± 120 µM | −logEC50 [5]: 3.26 ± 0.10 | EC50 [6]: 770 ± 90 µM | −logEC50 [6]: 3.11 ± 0.05 | EC50 [7]: 100 ± 20 µM | −logEC50 [7]: 4.00 ± 0.09 | EC50 [8]: 1070 ± 100 µM | −logEC50 [8]: 2.97 ± 0.04 | EC50 [9]: 1020 ± 100 µM | −logEC50 [9]: 2.99 ± 0.04 | EC50 [10]: 910 ± 50 µM | −logEC50 [10]: 3.04 ± 0.02 | EC50 [11]: 320 ± 20 µM | −logEC50 [11]: 3.49 ± 0.03 | EC50 [12]: 570 ± 90 µM | −logEC50 [12]: 3.24 ± 0.07 | EC50 [13]: 510 ± 100 µM | −logEC50 [13]: 3.29 ± 0.09 | EC50 [14]: 290 ± 50 µM | −logEC50 [14]: 3.54 ± 0.08 | EC50 [15]: 270 ± 30 µM | −logEC50 [15]: 3.57 ± 0.05 | EC50 [16]: 320 ± 40 µM | −logEC50 [16]: 3.49 ± 0.05 | EC50 [17]: 400 ± 50 µM | −logEC50 [17]: 3.40 ± 0.05 | EC50 [18]: 760 ± 130 µM | −logEC50 [18]: 3.12 ± 0.08

Reference: publication PMC5428567, “Pentameric ligand-gated ion channels exhibit distinct transmembrane domain archetypes for folding/expression and function” (Scientific Reports, 2017)
